The results in this text go back to the METLIN SMRT retention time set (Domingo-Almenara et al. 2019).

This data set in a line: gradient 5% acetonitrile 3 min, to 50% in 2 min, to 85% in 15 min, held 3 min, 100 µL/min. Particulars: column: Zorbax Extend-C18 2.1 x 50 mm; eluents: water / acetonitrile, 0.1% formic acid. The gist of the method: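 Retention times come from adduct peaks that were picked computationally and then checked by hand. The standards, pure and pooled in mixtures of ~100 molecules, were run on a Zorbax Extend-C18 column (2.1 × 50 mm, 1.8 μm) at 100 μL/min with water and acetonitrile, each with 0.1% formic acid. Detection was by quadrupole time-of-flight mass spectrometry in positive and negative ionization mode, with a dead volume of 40 μL and a dwell volume of 900 μL.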
`O=C(C1CC1)N1CCC(c2noc(-c3cccnc3)n2)C1` (stereo not given) showed an RP-LC retention time of 631 s.
Regarding `COc1cccc(S(=O)(=O)N2CCN(c3cc(C)nc(N4CCOCC4)n3)CC2)c1`, the RP-LC retention time was found to be 668 s.
Compound `CN(C)c1ccc(CNC(=O)C2CCN(c3cnc(N4CCCC4)nc3)CC2)cc1` returned an RP-LC retention time of 557 s.
Consider `CCOc1cccc(-c2noc(Cn3c(=O)n(-c4cccc(F)c4)c(=O)c4sccc43)n2)c1`, for which the RP-LC retention time turned out to be 1040 s.
`CCc1cccc(NC(=O)Cn2c(N3CCOCC3)nc(CC)cc2=O)c1` yielded an RP-LC retention time of 791 s.
For `CCc1nc(N)n(CC(=O)Nc2cc(F)ccc2C)c(=O)c1C`, the RP-LC retention time was determined as 620 s.
The compound `CCN(CCNC(=O)C1CCc2nc(N3CCOCC3)ncc2C1)c1ccccc1` (stereo not given) returned an RP-LC retention time of 591 s.
With `CCc1nc2cc(-c3noc(-c4cccc5[nH]ccc45)n3)ccc2o1`, the RP-LC retention time came out at 1040 s.
`CCOc1ccc(-n2c(SCC(=O)Nc3ncn[nH]3)nc3ccsc3c2=O)cc1` yielded an RP-LC retention time of 692 s.
`Cc1nnc(NC(=O)C2CCN(C(=O)c3ccccc3F)CC2)s1` had an RP-LC retention time of 624 s.
In turn, `O=C(c1ccco1)N1CCN=C1SCc1cccc(C(F)(F)F)c1` gave an RP-LC retention time of 849 s.
As for `Cc1ccc(N2C(=O)C3N=NN(Cc4nc(-c5cccc(C)c5)no4)C3C2=O)cc1` (stereo not given), the RP-LC retention time came out at 1040 s.
`O=C(NC1CCCCC1)C1CCN(S(=O)(=O)c2cc(C(=O)N3CCCC3)cs2)CC1` registered an RP-LC retention time of 765 s.
To `CCOc1cccc(-c2noc(Cn3cnc4c(oc5ccccc54)c3=O)n2)c1` belongs 1010 s; to `Cc1csc(-c2cc(S(=O)(=O)NC(C)(C)C)c(C)n2C)n1`, 914 s; to `CN(CC(=O)Nc1cccnc1)c1nc2ccccc2s1`, 568 s.
In turn, `CCOC(=O)Cn1nc2ccc(S(=O)(=O)N3CCSCC3)cn2c1=O` yielded an RP-LC retention time of 765 s.
The compound `N#Cc1cccc(-c2cn3c(n2)N(C(=O)C2CCCO2)CCC3)c1` (stereo not given) came in with an RP-LC retention time of 703 s.
For `Cc1sc(NC(=O)CCc2ccccc2)nc1-c1ccc2c(c1)NC(=O)C(C)O2` (stereo not given), the RP-LC retention time was determined as 687 s.
`Cc1cc(=O)n(CC(=O)NCc2ccc(F)cc2F)c(N2CCOCC2)n1` had an RP-LC retention time of 756 s.
For the compound `O=C(c1ccc(Cl)cc1)N1CCC2(CC1)N=C(c1ccccc1)NO2`, the RP-LC retention time came to 824 s.
As to `Cc1ccc(Nc2nc(C(=O)NC3CCCCCC3)nc3ccccc23)cc1`, the RP-LC retention time came out at 966 s.
Consider `CNCC[C@H](Oc1ccc(C(F)(F)F)cc1)c1ccccc1`, for which the RP-LC retention time turned out to be 818 s.
Compound `COc1ccc(CNC(=O)C2(C)CCCN(S(=O)(=O)c3ccc(Cl)cc3)C2)cc1` (stereo not given) gave an RP-LC retention time of 981 s.
The compound `COc1cc(OC)c(NC(=O)C(=O)c2ccc[nH]2)cc1Cl` gave an RP-LC retention time of 978 s.
In the case of `COc1ccc(NC(=O)c2cn(C)nc2S(=O)(=O)N2CCSCC2)cc1`, the RP-LC retention time amounted to 848 s.
`Cc1cc2c(=O)n(CC(=O)NCc3ccc(Cl)cc3)c3cccnc3n2n1` had an RP-LC retention time of 714 s.
With `COc1ccc(C2(C(=O)N3CCCC(CO)CCNC(=O)CC3)CC2)cc1` (stereo not given), the RP-LC retention time turned out to be 622 s.
`Cn1ncc2c(N3CCN(c4ccccc4F)CC3)ncnc21` gave an RP-LC retention time of 858 s.
As to `COC(=O)CNC(=O)C1CN(C(=O)c2ccccc2)CC12CCCCC2` (stereo not given), the RP-LC retention time was 731 s.
To `Cc1ccc(-c2cc(C(=O)N3CCN(c4ccc(N5CCOCC5)nn4)CC3)[nH]n2)c(C)c1` belongs 638 s; to `O=C(c1noc2ccc(S(=O)(=O)N3CCN(c4ccccn4)CC3)cc12)N1CCCCC1`, 703 s.
Compound `CCc1cccc(NC(=O)Cc2cn3cc(F)ccc3n2)c1` returned an RP-LC retention time of 638 s.
The compound `O=C(C1=NN(Cc2ccc(Cl)cc2)c2ccccc2S1(=O)=O)N1CCOCC1` came in with an RP-LC retention time of 854 s.
For the compound `CCOc1ccc(OCC)c(N2C=C(C#N)S(=O)(=O)c3ccccc32)c1`, the RP-LC retention time was 1000 s.
`Cc1cc(Cl)ccc1NC(=O)CC1COc2ccccc2NC1=O` (stereo not given) registered an RP-LC retention time of 770 s.
Take `CN(C)C(=O)CN1CCN(c2cc(C(=O)O)c3cc(NC(=O)c4cccc(Cl)c4)ccc3n2)CC1`: the RP-LC retention time amounted to 612 s.
For `Cc1ncc2c(n1)C[C@@H]1CC[C@H]2N1C(=O)c1cccnc1`, the RP-LC retention time was determined as 570 s.
In the case of `Cc1cccc(-c2noc(C3CCCN3S(=O)(=O)c3ccc(F)c(Cl)c3)n2)c1` (stereo not given), the RP-LC retention time was determined as 1220 s.
In the case of `O=C(Nc1ccsc1-c1nnc(C2CC2)o1)c1cccc(Br)c1`, the RP-LC retention time was found to be 1390 s.
On to `CCOc1ccc(NC(=O)Cn2c(=O)n(-c3ccc(C)cc3)c(=O)c3c2cc(C)n3C)cc1`, for which the RP-LC retention time is 824 s.
With `CC1CCN(c2cnn(CC(=O)Nc3cccc(Cl)c3F)c(=O)c2Cl)CC1`, the RP-LC retention time stood at 1020 s.
Compound `Cc1cc(=O)n(CC(=O)Nc2ccccc2)c(-c2ccccc2)n1` showed an RP-LC retention time of 964 s.
With `O=S(=O)(c1cc(-c2cc(C(F)(F)F)on2)cs1)N1CCN(c2ccc(Cl)cc2)CC1`, the RP-LC retention time was determined as 1290 s.
To `CCCn1cc(C(=O)NCC(C)C)c(S(=O)(=O)N2CCN(c3ccccc3OCC)CC2)n1` belongs 1180 s; to `Cc1cccc(CNC(=O)CC2CCN(C(=O)c3[nH]c(C)cc3C)CC2)c1`, 794 s.
`CCc1ccccc1NC(=O)C(=O)NCC1CCN(CCOC)CC1` returned an RP-LC retention time of 562 s.
To `CCc1cnn2c(NCc3ccc[n+]([O-])c3)cc(N3CCCC[C@H]3CCO)nc12` belongs 637 s; to `O=C(NC1CCCN(c2cc(-c3ccncc3)[nH]n2)C1)c1ccc(F)cc1` (stereo not given), 599 s; to `Cc1cccc(S(=O)(=O)N2CCCC(Cn3c(C4CC4)nc4cccnc43)C2)c1` (stereo not given), 791 s.
As for `COc1cccc(CNC(=O)Cn2cccc2-c2nnc(-c3ccccc3)o2)c1`, the RP-LC retention time is 895 s.
`Cn1c(-c2cccs2)nn(CCNC(=O)c2ccccc2SC(F)F)c1=O` came in with an RP-LC retention time of 677 s.
`COc1cccc(Oc2ncc(-c3cccc(C(=O)NC4CC4)c3)cn2)c1` yielded an RP-LC retention time of 797 s.
With `O=C(Nc1cccn2c(C3CCC3)nnc12)c1ccccn1`, the RP-LC retention time came out at 781 s.
To `Cc1ccc(C(=O)N2C[C@@H](F)C[C@H]2C(=O)N2CCCCC2)c(C)c1` belongs 740 s; to `CC(C)CCNC(=O)N1CCN(Cc2nc3ccc(Cl)cc3o2)CC1`, 746 s.
The compound `Cn1cnc2cc(CNC(=O)c3ccc(C#N)cc3)ccc21` had an RP-LC retention time of 578 s.
Take `CN(CCc1noc(-c2ccc(Cl)cc2)n1)C(=O)NCc1ccccc1`: the RP-LC retention time amounted to 932 s.
For the compound `COc1cccc(CC(=O)N2CCC(C(=O)NCCc3csc(-c4cccs4)n3)CC2)c1`, the RP-LC retention time worked out at 770 s.
The compound `Cc1ccc(Cn2c(N3CCCC(C(=O)NCCC(C)C)C3)nc3ccsc3c2=O)cc1` (stereo not given) registered an RP-LC retention time of 1030 s.
